In patent publication US9624197B2, “2-pyridylamino-4-nitrile-piperidinyl orexin receptor antagonists” (MERCK SHARP & DOHME CORP., priority 2012, dated 2017):

Key:
[1] = biological target: human orexin-2 receptor (Homo sapiens (Human), UniProt O43614); assay: FLIPR Ca2+ Flux Assay, CHO cells expressing human orexin-2 receptor; type: cell-based; details: agonist 70 pM Ala-6,12 human orexin-A, read-out: hOX2R FLIPR IC50
Method: (§1) The utility of the compounds in accordance with the present invention as orexin receptor OX1R and/or OX2R antagonists may be readily determined without undue experimentation by methodology well known in the art, including the “FLIPR Ca^2+ Flux Assay” (Okumura et al., Biochem. Biophys. Res. Comm. 280:976-981, 2001). In a typical experiment the OX1 and OX2 receptor antagonistic activity of the compounds of the present invention was determined in accordance with the following experimental method. For intracellular calcium measurements, Chinese hamster ovary (CHO) cells expressing the rat orexin-1 receptor or the human orexin-2 receptor, are grown in Iscove's modified DMEM containing 2 mM L-glutamine, […], 1% hypoxanthine-thymidine supplement, 100 U/ml penicillin, 100 μg/ml streptomycin and 10% heat-inactivated fetal calf serum (FCS). The cells are seeded at 20,000 cells/well into Becton-Dickinson black 384-well clear bottom sterile plates coated with poly-D-lysine. All reagents were from GIBCO-Invitrogen Corp. The seeded plates are incubated overnight at […]. and 5% CO2. Ala-6,12 human orexin-A as the agonist is prepared as a 1 mM stock solution in 1% bovine serum albumin (BSA) and diluted in assay buffer (HBSS containing 20 mM HEPES, 0.1% BSA and 2.5 mM probenecid, pH7.4) for use in the assay at a final concentration of 70 pM. Test compounds are prepared as 10 mM stock solution in DMSO, then diluted in 384-well plates, first in DMSO, then assay buffer. On the day of the assay, cells are washed 3 times with 100 μl assay buffer and then incubated for 60 min (37° C., 5% CO2) in 60 μl assay buffer containing 1 μM Fluo-4AM ester, 0.02% pluronic acid, and 1% BSA. The dye loading solution is then aspirated and cells are washed 3 times with 100 μl assay buffer. 30 μl of that same buffer is left in each well. Within the Fluorescent Imaging Plate Reader (FLIPR, Molecular Devices), test compounds are added to the plate in a volume of 25 μl, incubated for 5 min and finally 25 μl of agonist is added. Fluorescence is measured for each well at 1 second intervals for 5 minutes and the height of each fluorescence peak is compared to the height of the fluorescence peak induced by 70 pM Ala-6,12 orexin-A with buffer in place of antagonist. For each antagonist, IC50 value (the concentration of compound needed to inhibit 50% of the agonist response) is determined. Alternatively, compound potency can be assessed by a radioligand binding assay (described in Bergman et. al. Bioorg. Med. Chem. Lett. 2008, 18, 1425-1430) in which the inhibition constant (Ki) is determined in membranes prepared from CHO cells expressing either the OX1 or OX2 receptor. The intrinsic orexin receptor antagonist activity of a compound which may be used in the present invention may be determined by these assays.

[2] = biological target: rat orexin-1 receptor (Rattus norvegicus, UniProt P56718); assay: FLIPR Ca2+ Flux Assay, CHO cells expressing rat orexin-1 receptor; type: cell-based; details: agonist 70 pM Ala-6,12 human orexin-A, text says rat orexin-1 receptor, read-out: hOX1R FLIPR IC50
Method: as §1

Sequence of human orexin-2 receptor (O43614 whole entry): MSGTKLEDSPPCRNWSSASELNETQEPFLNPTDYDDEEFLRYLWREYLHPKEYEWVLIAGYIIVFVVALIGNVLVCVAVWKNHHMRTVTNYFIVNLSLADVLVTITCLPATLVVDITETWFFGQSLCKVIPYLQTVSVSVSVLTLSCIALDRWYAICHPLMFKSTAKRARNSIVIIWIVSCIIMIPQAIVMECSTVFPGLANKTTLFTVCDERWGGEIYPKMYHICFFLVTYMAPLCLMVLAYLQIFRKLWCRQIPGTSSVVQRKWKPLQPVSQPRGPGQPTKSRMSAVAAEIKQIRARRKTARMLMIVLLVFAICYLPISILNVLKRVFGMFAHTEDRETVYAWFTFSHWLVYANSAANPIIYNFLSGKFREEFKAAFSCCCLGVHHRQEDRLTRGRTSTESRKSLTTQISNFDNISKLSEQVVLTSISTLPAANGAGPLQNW

Compound: C[C@@H]1CC[C@@H](Nc2cc(C#N)ccn2)CN1C(=O)c1ccccc1-n1nccn1 [Example 1, 2-(((3R,6R)-1-(2-(2H-1,2,3-Triazol-2-yl)benzoyl)-6-methylpiperidin-3-yl)amino)isonicotinonitrile]
- IC50 [1]: 29 nM
- IC50 [2]: 1740 nM

Compound: COc1c(C#N)ccnc1N[C@@H]1CC[C@@H](C)N(C(=O)c2ccccc2-n2nccn2)C1 [Example 2, 3-methoxy-2-{[(3R,6R)-6-methyl-1-{[2-(2H-1,2,3-triazol-2-yl)phenyl]carbonyl}piperidin-3-yl]amino}pyridine-4-carbonitrile]
- IC50 [1]: 11 nM
- IC50 [2]: 267 nM

Compound: C[C@@H]1CC[C@@H](Nc2cc(C#N)ccn2)CN1C(=O)c1ccccc1-n1ncnn1 [Example 3, 2-(((3R,6R)-1-(2-(2H-Tetrazol-2-yl)benzoyl)-6-methylpiperidin-3-yl)amino)isonicotinonitrile]
- IC50 [1]: 9 nM
- IC50 [2]: 1920 nM

Compound: Cc1c(C#N)ccnc1N[C@@H]1CC[C@@H](C)N(C(=O)c2ccccc2-n2nccn2)C1 [Example 4, 2-(((3R,6R)-1-(2-(2H-1,2,3-Triazol-2-yl)benzoyl)-6-methylpiperidin-3-yl)amino)-3-methylisonicotinonitrile]
- IC50 [1]: 7 nM
- IC50 [2]: 745 nM

Compound: Cc1c(C#N)ccnc1N[C@@H]1CC[C@@H](C)N(C(=O)c2ccccc2-n2ncnn2)C1 [Example 5, 3-methyl-2-{[(3R,6R)-6-methyl-1-{[2-(2H-tetrazol-2-yl)phenyl]-carbonyl}-piperidin-3-yl]amino}pyridine-4-carbonitrile]
- IC50 [1]: 7 nM
- IC50 [2]: 1150 nM

Compound: COc1c(C#N)ccnc1N[C@@H]1CC[C@@H](C)N(C(=O)c2ccsc2-n2nccn2)C1 [Example 6, 2-((3R,6R)-1-(2-(2H-1,2,3-Triazol-2-yl)thiophene-3-carbonyl)-6-methylpiperidin-3-ylamino)-3-methoxyisonicotinonitrile]
- IC50 [1]: 11 nM
- IC50 [2]: 827 nM

Compound: COc1c(C#N)ccnc1N[C@@H]1CC[C@@H](C)N(C(=O)c2ccsc2-c2ncccn2)C1 [Example 7, 3-methoxy-2-((3R,6R)-6-methyl-1-(2-(pyrimidin-2-yl)thiophene-3-carbonyl)piperidin-3-ylamino)isonicotinonitrile]
- IC50 [1]: 47 nM
- IC50 [2]: 384 nM

Compound: C[C@@H]1CC[C@@H](N(C)c2cc(C#N)ccn2)CN1C(=O)c1ccccc1-n1nccn1 [Example 8, 2-(((3R,6R)-1-(2-(2H-1,2,3-Triazol-2-yl)benzoyl)-6-methylpiperidin-3-yl)(methyl)amino)isonicotinonitrile]
- IC50 [1]: 20 nM
- IC50 [2]: 2050 nM

Compound: C[C@@H]1CC[C@@H](N(C)c2cc(C#N)ccn2)CN1C(=O)c1ccccc1-n1ncnn1 [Example 9, 2-{methyl[(3R,6R)-6-methyl-1-{[2-(2H-tetrazol-2-yl)phenyl]-carbonyl}piperidin-3-yl]amino}pyridine-4-carbonitrile]
- IC50 [1]: 32 nM
- IC50 [2]: 2240 nM

Compound: COc1c(C#N)ccnc1N(C)[C@@H]1CC[C@@H](C)N(C(=O)c2ccsc2-n2nccn2)C1 [Example 10, 3-methoxy-2-{methyl[(3R,6R)-6-methyl-1-{[2-(2H-1,2,3-triazol-2-yl)thiophen-3-yl]carbonyl}piperidin-3-yl]amino}pyridine-4-carbonitrile]
- IC50 [1]: 39 nM
- IC50 [2]: > 10000 nM

Compound: COc1c(C#N)ccnc1N(C)[C@@H]1CC[C@@H](C)N(C(=O)c2ccsc2-c2ncccn2)C1 [Example 11, 3-methoxy-2-(methyl{(3R,6R)-6-methyl-1-[(2-pyrimidin-2-ylthiophen-3-yl)carbonyl]piperidin-3-yl}amino)pyridine-4-carbonitrile]
- IC50 [1]: 34 nM
- IC50 [2]: > 10000 nM

Compound: CCN(c1cc(C#N)ccn1)[C@@H]1CC[C@@H](C)N(C(=O)c2ccccc2-n2nccn2)C1 [Example 12, 2-{ethyl[(3R,6R)-6-methyl-1-{[2-(2H-1,2,3-triazol-2-yl)phenyl]carbonyl}piperidin-3-yl]amino}-pyridine-4-carbonitrile]
- IC50 [1]: 23 nM
- IC50 [2]: 1990 nM

Compound: C=CCN(c1cc(C#N)ccn1)[C@@H]1CC[C@@H](C)N(C(=O)c2ccccc2-n2nccn2)C1 [Example 13, 2-{[(3R,6R)-6-methyl-1-{[2-(2H-1,2,3-triazol-2-yl)phenyl]carbonyl}piperidin-3-yl](prop-2-en-1-yl)amino}pyridine-4-carbonitrile]
- IC50 [1]: 23 nM
- IC50 [2]: 2550 nM

Compound: CCCN(c1cc(C#N)ccn1)[C@@H]1CC[C@@H](C)N(C(=O)c2ccccc2-n2nccn2)C1 [Example 14, 2-{[(3R,6R)-6-methyl-1-{[2-(2H-1,2,3-triazol-2-yl)phenyl]carbonyl}piperidin-3-yl](propyl)-amino}pyridine-4-carbonitrile]
- IC50 [1]: 13 nM
- IC50 [2]: 330 nM

Compound: CC(=O)N(c1cc(C#N)ccn1)[C@@H]1CC[C@@H](C)N(C(=O)c2ccccc2-n2nccn2)C1 [Example 15, N-((3R,6R)-1-(2-(2H-1,2,3-Triazol-2-yl)benzoyl)-6-methylpiperidin-3-yl)-N-(4-cyanopyridin-2-yl)acetamide]
- IC50 [2]: > 10000 nM
